In patent publication US11718620B2, “Method for treating a cancer mediated by abnormality of multi-kinases” (TransThera Sciences (Nanjing), Inc., priority 2016, dated 2023):
Read-outs that look alike come from different tables or passages of the source.

Key:
Aurora B [1] = target: T1, Aurora B (Homo sapiens, UniProt Q96GD4); test: Aurora B enzymatic activity test, FAM-labeled peptide, Caliper; format: biochemical; details: FAM-labeled peptide substrate, read-out: Kinase-inhibiting activity IC50 Aurora B
T1 sequence (Q96GD4 whole entry): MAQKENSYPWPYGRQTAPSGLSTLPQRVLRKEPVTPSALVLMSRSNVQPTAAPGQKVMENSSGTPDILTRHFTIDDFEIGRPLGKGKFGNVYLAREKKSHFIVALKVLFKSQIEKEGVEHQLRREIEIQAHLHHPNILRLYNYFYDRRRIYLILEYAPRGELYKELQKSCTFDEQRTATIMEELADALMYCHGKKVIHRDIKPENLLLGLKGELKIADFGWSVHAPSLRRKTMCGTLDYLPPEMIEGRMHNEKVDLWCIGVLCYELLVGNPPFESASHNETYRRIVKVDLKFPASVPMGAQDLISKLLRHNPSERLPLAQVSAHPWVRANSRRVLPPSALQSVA
Description: (§1) Test samples: Compounds in the present invention (the sequence numbers and structures thereof are shown in Table 1), dilution concentration: 0.03 μM-3 μM, a total of 10 concentration gradients.
(§2) Test method: enzymatic activity tests of Aurora kinase (including Aurora A and Aurora B) and VEGFR2 (KDR) were performed using a multi-function microplate reader.
(§3) a) 96-well plates, 10 dose groups, 3-fold serial dilutions, each well was added with DMSO, maximal concentration of 500 μM (50-fold compound).
(§4) b) 384-well plates, diluted with 1× kinase buffer (50 mM HEPES, pH 7.5; 0.0015% Brij-35; 2 mM DTT), each well containing 5× compound dissolved in 5 μL of 10% DMSO. Each well of the negative control contains 5 μL of 1× kinase buffer containing 10% DMSO.
(§5) Aurora A, Aurora B and KDR were dissolved in 1× kinase buffer and prepared as a 2.5× enzyme solution. After the compound in various concentrations was reacted with 2.5× enzyme solution at room temperature for 10 min, the FAM-labeled peptide substrate and ATP were added to initiate reaction. After incubation for 40 minutes, 25 μL of terminal solution (100 mM HEPES, pH 7.5; 0.015% Brij-35; 0.2% Coating Reagent #3; 50 mM EDTA) was added to stop the reaction, and the final data were read by Caliper.

Aurora A [2] = target: T2, Aurora A (Homo sapiens, UniProt O14965); test: Aurora A enzymatic activity test, FAM-labeled peptide, Caliper; format: biochemical; details: FAM-labeled peptide substrate, read-out: Kinase-inhibiting activity IC50 Aurora A
T2 sequence (O14965 1-403): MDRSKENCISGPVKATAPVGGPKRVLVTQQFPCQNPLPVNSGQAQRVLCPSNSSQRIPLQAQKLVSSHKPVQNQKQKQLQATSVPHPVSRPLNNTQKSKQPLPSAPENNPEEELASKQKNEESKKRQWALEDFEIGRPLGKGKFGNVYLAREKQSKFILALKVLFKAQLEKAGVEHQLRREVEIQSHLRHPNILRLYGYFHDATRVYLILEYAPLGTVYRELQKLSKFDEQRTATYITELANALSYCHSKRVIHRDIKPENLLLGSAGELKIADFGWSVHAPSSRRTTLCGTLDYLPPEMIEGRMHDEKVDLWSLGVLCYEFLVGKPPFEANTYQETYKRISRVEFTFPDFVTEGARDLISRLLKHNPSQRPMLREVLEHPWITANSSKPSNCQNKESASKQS
Description: as §1, §2, §3, §4, §5

KDR(VEGFR2) [3] = target: T3, KDR(VEGFR2) (Homo sapiens, UniProt P35968); test: KDR enzymatic activity test, FAM-labeled peptide, Caliper; format: biochemical; details: FAM-labeled peptide substrate, read-out: Kinase-inhibiting activity IC50 KDR(VEGFR2)
T3 sequence (P35968 20-1356): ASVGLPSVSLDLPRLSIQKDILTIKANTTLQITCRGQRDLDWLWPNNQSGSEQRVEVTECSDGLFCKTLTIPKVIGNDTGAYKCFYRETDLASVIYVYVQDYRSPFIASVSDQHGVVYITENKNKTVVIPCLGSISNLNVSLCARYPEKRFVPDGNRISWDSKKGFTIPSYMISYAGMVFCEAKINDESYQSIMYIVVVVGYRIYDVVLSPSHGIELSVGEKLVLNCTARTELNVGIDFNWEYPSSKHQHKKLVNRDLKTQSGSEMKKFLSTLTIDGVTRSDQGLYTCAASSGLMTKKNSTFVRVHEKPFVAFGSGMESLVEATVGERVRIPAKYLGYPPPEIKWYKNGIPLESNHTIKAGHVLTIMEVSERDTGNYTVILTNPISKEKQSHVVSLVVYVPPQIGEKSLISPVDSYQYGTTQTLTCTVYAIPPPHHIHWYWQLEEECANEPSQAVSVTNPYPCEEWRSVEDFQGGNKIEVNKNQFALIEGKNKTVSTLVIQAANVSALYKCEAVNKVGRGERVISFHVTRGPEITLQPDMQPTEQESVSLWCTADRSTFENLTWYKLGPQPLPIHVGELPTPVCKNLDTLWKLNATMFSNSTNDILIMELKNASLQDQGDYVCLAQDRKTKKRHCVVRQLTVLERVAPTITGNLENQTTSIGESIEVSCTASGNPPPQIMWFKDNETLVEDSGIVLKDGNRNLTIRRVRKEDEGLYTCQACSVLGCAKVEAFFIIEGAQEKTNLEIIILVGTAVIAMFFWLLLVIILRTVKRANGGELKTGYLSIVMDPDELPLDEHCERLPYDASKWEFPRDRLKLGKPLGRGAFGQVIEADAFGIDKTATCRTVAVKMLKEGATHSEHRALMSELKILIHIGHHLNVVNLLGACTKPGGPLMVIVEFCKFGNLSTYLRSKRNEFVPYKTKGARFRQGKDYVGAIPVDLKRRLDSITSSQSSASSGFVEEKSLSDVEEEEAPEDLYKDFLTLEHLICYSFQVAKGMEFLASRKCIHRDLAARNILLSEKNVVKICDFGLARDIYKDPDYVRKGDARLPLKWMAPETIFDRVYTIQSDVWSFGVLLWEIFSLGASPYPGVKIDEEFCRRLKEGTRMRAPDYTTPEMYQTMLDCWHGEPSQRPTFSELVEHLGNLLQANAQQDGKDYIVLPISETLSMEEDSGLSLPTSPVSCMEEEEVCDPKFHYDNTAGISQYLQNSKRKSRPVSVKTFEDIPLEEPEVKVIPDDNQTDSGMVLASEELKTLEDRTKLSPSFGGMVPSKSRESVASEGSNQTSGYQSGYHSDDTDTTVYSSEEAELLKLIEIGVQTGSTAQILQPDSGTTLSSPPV
Description: as §1, §2, §3, §4, §5

Aurora B [4] = target: T1, Aurora B; test: Aurora B kinase activity test, [γ-33P]-ATP filter membrane; format: biochemical; details: 40 minutes at room temperature, read-out: Kinase-inhibiting activity IC50 Aurora B
Description: (§6) Test samples: compounds 1 to 4 in the present invention (the sequence numbers and structures thereof are shown in Table 1), dilution concentration: 0.03 μM-3 μM, a total of 10 concentration gradients.
as §2
(2) Test for Aurora B Kinase Activity:
Aurora B kinase protein and the compounds were sequentially added to the following reaction system: 8 mM MOPS pH 7.0, 0.2 mM EDTA, 30 μM […], 10 mM magnesium acetate and [γ-^33P]-ATP (radioactive activity was approximately 500 cpm/pmol). Then the above reaction system was added with ATP to start the reaction, and incubated at room temperature for 40 minutes. Then the reaction was terminated by adding a 3% phosphoric acid solution. 10 μL was taken out from the reaction system, and then added dropwise to a P30 filtermat filter membrane, washed three times in 75 mM phosphoric acid solution for 5 minutes, and then washed once with methanol. After the filter was dried, count was performed by a liquid crystal scintillation counter.

Aurora A [5] = target: T2, Aurora A; test: Aurora A kinase activity test, [γ-33P]-ATP filter membrane; format: biochemical; details: 40 minutes at room temperature, read-out: Kinase-inhibiting activity IC50 Aurora A
Description: as §6, §2
(1) Test for Aurora a Kinase Activity:
Aurora A kinase protein and the compounds were sequentially added to the following reaction system: 8 mM MOPS pH 7.0, 0.2 mM EDTA, 200 μM LRRASLG (Kemptide), 10 mM magnesium acetate and [γ-^33P]-ATP (radioactive activity was approximately 500 cpm/pmol). Then the above reaction system was added with ATP to start the reaction, and incubated at room temperature for 40 minutes. Then the reaction was terminated by adding a 3% phosphoric acid solution. 10 μL was taken out from the reaction system, and then added dropwise to a P30 filtermat filter membrane, washed three times in 75 mM phosphoric acid solution for 5 minutes, and then washed once with methanol. After the filter membrane was dried, count was performed by a liquid crystal scintillation counter.

KDR(VEGFR2) [6] = target: T3, KDR(VEGFR2); test: KDR kinase activity test, [γ-33P]-ATP filter membrane; format: biochemical; details: 40 minutes at room temperature, read-out: Kinase-inhibiting activity IC50 KDR (VEGFR2)
Description: as §6, §2
(3) Test for KDR Kinase Activity:
KDR kinase protein and the compounds were sequentially added to the following reaction system: 8 mM MOPS pH 7.0, 0.2 mM EDTA, 0.33 mg/mL myelin basic protein, 10 mM magnesium acetate and [γ-^33P]-ATP (radioactive activity was approximately 500 cpm/pmol). Then the above reaction system was added with ATP to start the reaction, and incubated at room temperature for 40 minutes. Then the reaction was terminated by adding a 3% phosphoric acid solution. 10 μL was taken out from the reaction system, and then added dropwise to a P30 filtermat filter membrane, washed three times in a 75 mM phosphoric acid solution for 5 minutes, and then washed once with methanol. After the filter was dried, count was performed by a liquid crystal scintillation counter.

A549 Lung cancer cells = test: Cell proliferation, Cell Titer-Glo; format: cell-based; details: Homo sapiens, 72 hours, read-out: Cellular inhibitory activity IC50 A549
Description: (§7) Test method: The effect of compounds on cell proliferation of different cell lines was examined by Cell Titer-Glo method.
(§8) Each cell line was inoculated into a 96-well plate one day in advance, and after overnight incubation, drugs in different concentrations were added to a final concentration of 0-10000 nM, 3-5 folds dilution, for a total of 10 concentration points. After incubation for 72 hours, the mixture was added with Cell titer-Glo reagent equilibrated at room temperature, and shaken to incubation for 10 min, and then allowed to stand at room temperature for 2 min to stabilize the light signal. The multi-function microplate reader was used to read data from each well and analyze it.

[7] = test system: BT-549 breast cancer cells; test: Cell proliferation, Cell Titer-Glo; format: cell-based; details: Homo sapiens, 72 hours, read-out: Cellular inhibitory activity IC50 BT-549
Description: as §7, §8

[8] = test system: MDA-MB-468 breast cancer cells; test: Cell proliferation, Cell Titer-Glo; format: cell-based; details: Homo sapiens, 72 hours, read-out: Cellular inhibitory activity IC50 MDA-MB-468
Description: as §7, §8

[9] = test system: D4475 breast cancer cells; test: Cell proliferation, Cell Titer-Glo; format: cell-based; details: 72 hours, read-out: Cellular inhibitory activity IC50 D4475
Description: as §7, §8

[10] = test system: human acute granulocytic leukemia Kasumi-1 cells xenograft; test: In vivo pharmacodynamic study, subcutaneous xenograft tumor model; set-up: species or system CB17 SCID mice; details: for Tumor Weight: QD × 18, Kasumi-1 tumor-bearing mice; for Tumor Growth Inhibition rate (TGI): QD × 18, by tumor weight
Description: (§9) Test sample: crystal form I prepared in Example 17 (crystal form I of compound 29)
Animals, Cells, Reagents & Instruments: Kasumi-1 cells, derived from ATCC.
CB17 SCID mice, 6-8 weeks, female, available from Shanghai Lingchang Biotechnology Co., Ltd.
Kasumi-1 cells were cultured in vitro in a single layer, and culture conditions were as follows: RPMI1640 medium supplemented with 10% heat-inactivated fetal bovine serum and 1% penicillin-streptomycin double antibody, 37° C., and 5% CO2. Passage was achieved two to three times a week. When the cells were in the exponential growth phase, the cells were harvested, counted, and inoculated.
0.2 mL of cell suspension containing about 1×10^7 Kasumi-1 cells (cell suspended in 1:1 base RPMI 1640 medium and nutrient gel) was subcutaneously inoculated into the right back of female CB17 SCID mice. Grouping administration was started when the average tumor volume reached 100-150 mm^3. Grouping method: Animals were weighed prior to administration and tumor volume was measured. Grouping was performed according to the tumor volume, with 8 mice per group.
Health and death of the animals were monitored daily. Body weight was measured twice a week, and samples were collected after the last dose and the tumor weight was weighed.

[11] = PK evaluation in beagle dogs; format: in vivo
Description: as §9
(1) Administration to animals: All animals were fasted for more than 12 h before administration, and fed at 4 h after the administration. […] Beagle dogs were given intravenously 1 mg/kg of crystal form I of compound 29 (prescription: 10% DMA+20% (30% Solutol)+70% saline) in a single dose, and blood was collected at 0 h before administration and 0.083, 0.25, 0.50, 1.0, 2.0, 4.0, 6.0, 8.0, 12 and 24 h after administration. Beagle dogs were given orally 2 mg/kg of crystal form I of compound 29 (Prescription: 10% DMA+20% (30% Solutol)+70% saline) in a single dose, and blood was collected at 0 h before administration and at 0.25, 0.50, 1.0, 2.0, 4.0, 6.0, 8.0, 12, and 24 h after administration, and 200 μL blood was taken through a small saphenous vein, and placed in a dried EDTA-K2 test tube. (2) Preparation of plasma: The whole blood sample was separated by low-speed centrifugation (1800 g, 5 min, 4° C.) (the whole blood was collected and placed in an ice bath, and plasma separation should be completed within 30 min) to give plasma, and the separated plasma was stored in a refrigerator at […] for analysis.
The sample to be tested (−80° C.) was taken from the refrigerator, thawed naturally at room temperature and vortexed for 5 min; 20 μL of plasma sample was accurately aspirated into a 1.5 mL centrifuge tube; added with 200 μL of internal standard working solution at a concentration of 50 ng/mL, and mixed well; after vortexed for 5 min, the mixture was centrifuged for 5 min (12000 rpm); 50 μL of supernatant was accurately aspirated into 96-well plates pre-filled with 150 μL/well of water; vortexed for 5 min, LC-MS/MS determination was performed in an injection volume of 15 μL.
The concentration of test sample was output using Analyst 1.6.1 from AB SCIEX.

[12] = intravenously 1 mg/kg single dose

SMILES	IC50 (Aurora B [1]) [nM]	IC50 (Aurora A [2]) [nM]	IC50 (KDR(VEGFR2) [3]) [nM]	other results
Cc1[nH]nc2c1N=C(c1ccccc1Cl)c1cnc(N3CCO[C@H](C)C3)cc1N2 (stereo in doubt) [Compound 40]	11	2.7	2.9	
Cc1[nH]nc2c1N=C(c1ccccc1Cl)c1cnc(S(C)(=O)=O)cc1N2 [Compound 1]				IC50 (Aurora B [4]): 30 nM; IC50 (Aurora A [5]): 12 nM; IC50 (KDR(VEGFR2) [6]): 1660 nM
Cc1[nH]nc2c1N=C(c1ccccc1Cl)c1cnc(C3CC3)cc1N2 [Compound 2]				IC50 (Aurora B [4]): 4 nM; IC50 (Aurora A [5]): < 3 nM; IC50 (KDR(VEGFR2) [6]): 593 nM
Cc1[nH]nc2c1N=C(c1ccccc1Cl)c1cnc(N3CCNCC3)cc1N2 [Compound 37]	8.8	5.4	1.7	
Cc1[nH]nc2c1N=C(c1ccccc1Cl)c1cnc(CN3CCNCC3)cc1N2 [Compound 38]	16	18	4.2	
Cc1[nH]nc2c1N=C(c1ccccc1Cl)c1cnc(N3C[C@@H](C)N(C)[C@@H](C)C3)cc1N2 [Compound 41]	24	15	7.9	
Cc1[nH]nc2c1N=C(c1ccccc1Cl)c1cnc(N3CCN(C)[C@H](C)C3)cc1N2 [Compound 42]	1.7	3	9.7	
Cc1[nH]nc2c1N=C(c1ccccc1Cl)c1cnc(N3CCN(C)C(=O)C3)cc1N2 [Compound 43]	5.8	2.1	1.8	
Cc1[nH]nc2c1N=C(c1ccccc1Cl)c1cnc(N3CCN(C4CC4)CC3)cc1N2 [Compound 44]	6.8	0.82	1.5	IC50 (A549 Lung cancer cells): 358 nM; IC50 [7]: 249 nM; IC50 [8]: 984 nM; IC50 [9]: 101 nM
Cc1[nH]nc2c1N=C(c1ccccc1Cl)c1cnc(N3CC4CC3CO4)cc1N2 (stereo not drawn) [Compound 45]	4.7	1	0.3	IC50 (A549 Lung cancer cells): 507 nM; IC50 [7]: 186 nM; IC50 [8]: 491 nM; IC50 [9]: 171 nM
Cc1[nH]nc2c1N=C(c1ccccc1Cl)c1cnc(N3CC4COCC4C3)cc1N2 (stereo not drawn) [Compound 46]	3.1	0.41	0.53	IC50 (A549 Lung cancer cells): 211 nM; IC50 [7]: 83 nM; IC50 [8]: 319 nM; IC50 [9]: 48 nM
Cc1[nH]nc2c1N=C(c1ccccc1Cl)c1cnc(N3CC4(COC4)C3)cc1N2 [Compound 48]	5.2	1.4	1.8	
Cc1[nH]nc2c1N=C(c1ccccc1Cl)c1cnc(N3CCOCC3)cc1N2 [Crystal form I of compound 29, 4-(5-(2-chlorophenyl)-3-methyl-2,10-dihydropyrazolo[4,3-b]pyrido[4,3-e][1,4]diazepin-8-yl) morpholine]				Tumor Weight ([10]; 5 mg/kg po): 0.435 ± 0.091 g; Tumor Growth Inhibition rate (TGI) ([10]; 5 mg/kg po): 69.58%; Tumor Weight ([10]; 15 mg/kg po): 0.100 ± 0.014 g; Tumor Growth Inhibition rate (TGI) ([10]; 15 mg/kg po): 92.98%; inhibitory effect on the Kasumi-1 cell xenograft model ([10]; result in words): significant inhibitory effect; AUC(0-inf) ([11]; dog, plasma, iv, intravenously 1 mg/kg single dose, read-out: AUCinf iv): 4650 ng·h/mL; Tmax ([11]; dog, plasma, po, orally 2 mg/kg single dose): 2 h; AUC(0-inf) ([11]; dog, plasma, po, orally 2 mg/kg single dose, read-out: AUCinf po): 8600 ng·h/mL; Cl_obs iv [11, 12]: 3.67 mL/min/kg; Vz_obs iv [11, 12]: 2.35 L/kg; tz1/2 iv [11, 12]: 7.64 h; tZl1/2po ([11]; orally 2 mg/kg single dose): 6.87 h
